Reference: a melting point compilation (Tetko et al.; mined from patent text by program, amines drawn as free bases though some values may be those of a salt)

| melting point [°C] | Compound |
| --- | --- |
| 141 | NCC(=O)NCCCn1cc(-c2ccccc2)c2ccccc2c1=O |
| 147 | Cc1ccc(S(=O)(=O)NN=C(Cc2ccc(OCc3ccccc3)cc2)c2cc(OCc3ccccc3)cc(OCc3ccccc3)c2)cc1 |
| 122 to 123 | CON=C(c1ccccc1OCc1ccc(Cl)cc1Cl)n1ccnc1 |
| 264 to 265 | Cc1cccc2nc(-c3cc(C(F)F)nn3-c3ccc(S(N)(=O)=O)cc3)sc12 |
| 39 to 40 | CCOC(=O)COc1cccc(Cl)c1 |
| 251 to 252 | COC(=O)NN=Cc1nc(-c2cccc(C(F)(F)F)c2)[nH]c1C |
| 120 to 122 | CCOCc1nc2c(N)nc(C)c(C)c2n1NC1CCOCC1 |
| 235 to 237 | COc1ccc(-n2cc(C(=O)O)cn2)cc1 |
| 124 to 125 | COc1ccc(-c2cc(N(C)c3c(C)cc(C)cc3C)nc(C)n2)cc1OC |
| 219 to 223 | CNC(=O)c1cc2c(c(F)c1F)N(c1ccc(I)cc1C)COC2=O |
| 232 to 235 | N#Cc1cccc(C2=Nc3ccc(-c4cccc(F)c4)cc3NC(=O)C2)c1 |
| 73 to 75 | CC(O)(CSc1ccc(F)cc1)C(=O)O (centres undefined) |
| 152 to 155 | Cc1cccc(NC(=O)NC2N=C(CC(C)C)c3cccc(C)c3N(CC(=O)C3CCCCC3)C2=O)c1 (centres undefined) |
| 168 to 170 | CCC(CC)n1cc(Cl)nc(N2CCc3cc(Cl)cc(Cl)c32)c1=O |
| 182 to 185 | CCn1c(=O)n(C2CCN(C(C)(C)CCCN3C(=O)c4ccccc4S3(=O)=O)CC2)c2ccccc21 |
| 126 to 130 | COC(=O)c1ncnn1Cc1ccc([N+](=O)[O-])cc1 |
| 199 to 200 | O=Cc1c2ccc3ccccc3c2cc2ccsc12 |
| 58 to 60 | CC(C)(C)C(=O)OCOc1ccc(C=O)cc1OC(=O)C(C)(C)C |
| 146 to 148 | CC(=O)OC1(c2ccc3c(c2)OCO3)C(=O)N(Cc2ccc(Cl)cc2)c2ccccc21 (centres undefined) |
| 122 to 124 | CCN1CCCC1=NC(=O)Nc1cccc(Cl)c1 |
| 113 to 115 | Fc1ccc2c(c1)Cc1sc(NCCCN3CCOCC3)nc1-2 |
| 184 to 186 | CC(=O)NCC=C1CCc2ccc3nc(C)sc3c21 |
| 109 | O=C1CC[C@H](COC(c2ccccc2)(c2ccccc2)c2ccccc2)N1CCCc1ccccc1 |

| melting point [°C] | Compound |
| --- | --- |
| 179 to 181 | O=C(NCc1ccc(Cl)cc1)c1cnc2ccc(C#CCO)cn2c1=O |
| 103 to 104 | CC1Nc2ccc(-c3csc(C#N)c3)cc2C2(CCCC2)O1 (centres undefined) |
| 119 to 121 | CC(=O)OC(=O)c1cc(CCl)ccc1O |
| 174 to 175 | CC(C)Cc1nc(Cc2ccccc2)c2c(c1O)COC2 |
| 144 to 145 | CN(C)C(=O)c1ccccc1Sc1ccc([N+](=O)[O-])cc1[N+](=O)[O-] |
| 185 to 189 | COc1ccc(N2CCOCC2)c2sc(NC(=O)N3CC4CC[C@@](C)(C3)C4(C)C)nc12 |
| 68 to 70 | CC(=O)N1CCCCc2ccc(C(=O)CCN(C)C)cc21 |
| 223 to 225 | O=C(NC(O)C(Cl)(Cl)Cl)c1cc([N+](=O)[O-])ccc1O (centres undefined) |
| 90 to 92 | O=Nc1ccc(NC2CCCCC2)cc1 |
| 91 to 93 | CON=CC1=CCCN(C(=O)Oc2ccc(C(C)(C)CC(C)(C)C)cc2)C1 |
| 209 to 210 | O=C(Nc1ccccc1)C1=C(Nc2ccc(Cl)cc2)COC1=O |
| 140 to 142 | CC(=O)Nc1ccc(-c2cc(C(=O)c3cc(-c4ccc(NC(C)=O)cc4)c(N4CCOCC4)s3)sc2N2CCOCC2)cc1 |
| 102 to 103 | CCN(CC)CCOC(=O)c1nn(-c2ccc(Cl)cc2)c2c1CCc1ccccc1-2 |
| 128 to 129 | O=C(CC(=O)c1cccn1Cc1ccc(F)cc1)c1ccncn1 |
| 230 | CCOC(=O)c1c(Cc2ccccc2)c2ccccc2[nH]c1=O |
| 196 to 197 | COc1ccc(C2=NN(C3CCN(c4ccc([N+](=O)[O-])cc4)CC3)C(=O)[C@@H]3CC=CC[C@H]23)cc1OC |
| 158 to 162 | Cn1c(=O)c(Oc2ccccc2F)cc2cnc(S(C)(=O)=O)nc21 |
| 86 to 88 | CCNc1nc(Cl)cc(NC2CC2)n1 |
| 71 | CCCC(=O)C1=C(O)CC(c2ccc3occc3c2)CC1=O (centres undefined) |
| 174 to 176 | Cn1c(COc2ccc(CC3SC(=O)NC3=O)cc2)cc2ccccc21 (centres undefined) |
| 225 to 227 | CC(=O)Oc1ccc(CC(=O)Nc2ncc(-c3ccc(OC(C)=O)cc3)nc2Cc2ccccc2)cc1 |
| 131 to 133 | Cc1cncn1-c1cc(N)cc(C(F)(F)F)c1 |
| 102 | COC(CCCNC(=O)c1ccc2c(c1)C(=O)N(CCCC(OC)OC)C2=O)OC |

| melting point [°C] | Compound |
| --- | --- |
| 155 to 156 | Cc1oc(-c2ccco2)nc1COc1ccc(COc2nn(C)cc2CC(=O)O)cn1 |
| 137 to 138 | CCN1CCN(C(C)C(=O)NC2(c3ccc4occc4c3)C(=O)Nc3cc(Cl)cc(Cl)c32)CC1 (single isomer, unassigned; (+)) |
| 74.5 to 75.5 | O=[N+]([O-])c1ccc(Cl)cc1OCC=Cc1ccccc1 |
| 199 to 201 | CCCNC(=O)Nc1ccc(N(C)C)cc1C(=O)NCC1CCN(C(c2ccccc2)c2ccccc2)CC1 |
| 148 to 150 | CON=C(C)CC(C)(C)Cn1cnc2c(N)nc3ccccc3c21 |
| 275 to 277 | CC1(C)Cc2cc(C3=NNC(=O)C4CC34)ccc2NC1=O (centres undefined) |
| 275 to 276 | O=c1cc(Oc2ccccc2)c(-c2nc[nH]n2)cn1-c1ccccc1 |
| 218 to 220 | CC(C)Cn1cnc2c(N)nc3cc(Br)ccc3c21 |
| 124 to 126 | CC(C)(CC(O)(C(=O)Nc1ccccc1)C(F)(F)F)c1cc(F)ccc1O (centres undefined) |
| 181 to 184 | CCCc1ccc(C(=O)Nc2ccc3c(c2)CCC3=O)cc1 |
| 277 to 284 | O=C(O)c1nnc(-c2ccc(Cl)cc2)o1 |
| 105 to 107 | C(=CCN(c1ccccc1)c1ccccc1)CN(c1ccccc1)c1ccccc1 |
| 193 to 197 | O=C1NCCN(N=Cc2ccco2)C1=O |
| 102 to 103 | FC(F)c1cccc(C#CCCn2nc3ccccc3n2)n1 |
| 222 to 224 | CSCCOc1ccc(-c2ccc3c(c2)C=C(C(=O)Nc2ccc(CN(C)C4CCOCC4)cc2)CCS3(=O)=O)cc1 |
| 135 to 140 | CCOC(=O)C(Cc1ccc2ccc3cccc4ccc1c2c34)(NC(C)=O)C(=O)OCC |
| 52 to 56 | COC(=O)C(Cc1ccc(OCC(=O)Nc2ccc(Oc3ccc(C45CC6CC(CC(C6)C4)C5)cc3)cc2N(C)C(=O)OC(C)(C)C)cc1)OCc1ccc(F)cc1 (centres undefined) |
| 130 to 131 | O=c1[nH]c(=O)n(C2CC(OCc3ccc(F)cc3)C(CO)O2)cc1F (centres undefined) |
| 194 | COC(=O)c1ccc(NC(C)=O)c(CC(=O)O)c1 |
| 229 to 231 | Oc1ccc2c(c1)CCCC(c1ccccc1)=C2c1ccc(OCCI)cc1 |
| 200 | CC(C)(C)Oc1ccc(C(=O)N[C@H]2CC[C@H](CCN3CCN(c4nccc5c4CCO5)CC3)CC2)cc1 |
| 130 | Cc1onc(-c2ccc(-c3cscn3)cc2)c1-c1ccc(S(C)(=O)=O)c(F)c1 |

| Compound | melting point [°C] |
| --- | --- |
| Cc1c(C2=CCC(c3ccccc3)(N(C)C)CC2)[nH]c2ccc(F)cc12 (centres undefined) | 171 to 175 |
